# Data published in article PMC10247784, “Physiological activation of human and mouse bitter taste receptors by bile acids” (Communications Biology, 2023).
# Values joined by “and” are separate entries in the source; they are usually repeats but may differ in a detail not shown here. Identical values can stand only once.
# Target: T1, human TAS2R1 (Homo sapiens, UniProt Q9NYW7)
# T1 construct: expressed in transfected cells; host or cells: HEK293T-Gα16gust44
# T1 sequence (Q9NYW7 1-299): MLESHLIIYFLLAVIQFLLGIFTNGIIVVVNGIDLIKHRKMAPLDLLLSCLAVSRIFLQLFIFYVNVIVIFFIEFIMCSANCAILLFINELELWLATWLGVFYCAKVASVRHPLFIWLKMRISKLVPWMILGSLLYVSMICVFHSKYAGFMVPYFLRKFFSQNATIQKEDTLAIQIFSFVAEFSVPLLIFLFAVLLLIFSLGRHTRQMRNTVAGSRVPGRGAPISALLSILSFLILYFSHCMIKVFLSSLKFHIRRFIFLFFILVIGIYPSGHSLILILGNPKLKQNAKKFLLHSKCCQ
# Assay: Calcium imaging assay (FLIPR), HEK293T-Gα16gust44 cells transfected with human TAS2R1
# Assay type: cell-based
# Method: This set of bile acids was chosen because of their commercial availability in high purities, their diversity within the class of bile acids and their previous detection and quantitation in human blood. Stock solutions were prepared in DMSO.
# As basal growth medium for the HEK293T-Gα16gust44 cell line[17],[59] served Dulbecco’s modified eagle medium (DMEM) (Thermo Fisher Scientific, Darmstadt, Germany) supplemented with 10 % fetal bovine serum (Sigma-Aldrich, Steinheim, Germany), 2 mM L-glutamine (Sigma-Aldrich, Steinheim, Germany), 100 units/ml penicillin (Sigma Aldrich, Steinheim, Germany) and 100 µg/ml streptomycin (Sigma Aldrich, Steinheim, Germany). Growth conditions were 37 °C, 5 % CO2 and saturated air-humidity[60].
# HEK293T-Gα16gust44 cells were seeded on poly-D-lysine (10 µg/ml) coated 96-well plates to reach a confluence of 40-60 % the next day. For transient transfection 150 ng of plasmid DNA containing the receptor of interest and 0.3 µl lipofectamine 2000 (Thermo Fisher Scientific, Darmstadt, Germany) per well were used and transfection took place according to the manual of lipofectamine 2000. […] The empty vector DNA (mock) was transfected as negative control[14],[41].
# Cells were loaded using the calcium-sensitive fluorescent dye Fluo-4-AM (Abcam, Cambridge, Great Britain) in the presence of 2.5 mM probenecid (Sigma-Aldrich, Steinheim, Germany) the day after transfection[13],[41]. 1 h after loading, cells were washed with C1 buffer using a BioTek Cell Washer, incubated in the dark for half an hour and washed again. For automated agonist application and measurement of fluorescence changes, a FLIPR^TETRA device (Molecular Devices, San José, United States) was used. Viability of cells was tested by application of 100 nM Somatostatin 14 (Bachem, Bubendorf, Switzerland)[42].
# Measured data were negative control corrected by subtracting the signal of the mock-transfected cells and exported to Microsoft Excel using the FLIPR software ScreenWorks 4.2. In Microsoft Excel software, standardization of maximum fluorescence intensities to the basal fluorescence and normalization to the buffer-only control was done to calculate the relative fluorescence changes (ΔF/F).
# Initial screening experiments performed in duplicate wells were confirmed by at least one replication and representative traces were selected for display. All dose-response relationships were determined by three independent experiments (biological replicates) performed in duplicates (technical replicates). Threshold concentrations, defined as lowest substance concentrations leading to statistically significant elevated fluorescence changes in receptor-transfected cells compared with empty vector-transfected cells, were determined using SigmaPlot with Student’s t-test to evaluate statistical significance (p < 0.01).
smiles,measurement,setting,value
"C[C@H](CCC(=O)O)[C@H]1CC[C@H]2[C@@H]3[C@H](O)C[C@@H]4C[C@H](O)CC[C@]4(C)[C@H]3C[C@H](O)[C@]12C [Cholic Acid, cholic acid]",Efficacy = maximal amplitude (ΔF/F),"TAS2R1, bile acids, mean",0.1303
same,"Efficacy (maximal amplitude ΔF/F), individual data points","TAS2R1, bile acids, single replicates, listed as CA",0.1237 and 0.1261 and 0.1411
same,RLU,Time 0 s,0 RLU
same,RLU,Time 2.015 s,-18.7915 RLU
same,RLU,Time 4.015 s,-20.7803 RLU
same,RLU,Time 6.015 s,-30.3104 RLU
same,RLU,Time 8.015 s,-41.5185 RLU
same,RLU,Time 12.015 s,-39.0663 RLU
same,RLU,Time 14.015 s,-19.7859 RLU
same,RLU,Time 16.015 s,-20.0825 RLU
same,RLU,Time 18.015 s,-33.1938 RLU
same,RLU,Time 18.796 s,-13.8993 RLU
same,RLU,Time 20.796 s,-32.113 RLU
same,RLU,Time 22.796 s,0.5227 RLU
same,RLU,Time 24.796 s,72.3168 RLU
same,RLU,Time 26.796 s,179.01 RLU
same,RLU,Time 28.796 s,273.224 RLU
same,RLU,Time 30.796 s,414.499 RLU
same,RLU,Time 32.796 s,487.46 RLU
same,RLU,Time 34.796 s,561.258 RLU
same,RLU,Time 36.796 s,600.729 RLU
same,RLU,Time 38.796 s,652.414 RLU
same,RLU,Time 40.796 s,646.063 RLU
same,RLU,Time 42.796 s,688.029 RLU
same,RLU,Time 44.796 s,718.237 RLU
same,RLU,Time 46.796 s,709.989 RLU
same,RLU,Time 48.796 s,747.058 RLU
same,RLU,Time 50.796 s,725.497 RLU
same,RLU,Time 52.796 s,721.254 RLU
same,RLU,Time 54.796 s,750.511 RLU
same,RLU,Time 56.796 s,763.129 RLU
same,RLU,Time 58.796 s,754.05 RLU
same,RLU,Time 60.796 s,736.769 RLU
same,RLU,Time 62.796 s,752.117 RLU
same,RLU,Time 64.796 s,729.251 RLU
same,RLU,Time 66.796 s,754.307 RLU
same,RLU,Time 68.796 s,748.849 RLU
same,RLU,Time 70.796 s,729.014 RLU
same,RLU,Time 72.796 s,724.252 RLU
same,RLU,Time 74.796 s,721.996 RLU
same,RLU,Time 76.796 s,719.984 RLU
same,RLU,Time 78.796 s,701.138 RLU
same,RLU,Time 80.796 s,695.956 RLU
same,RLU,Time 82.796 s,687.252 RLU
same,RLU,Time 84.796 s,702.818 RLU
same,RLU,Time 86.796 s,660.013 RLU
same,RLU,Time 88.796 s,675.614 RLU
same,RLU,Time 90.796 s,671.255 RLU
same,RLU,Time 92.796 s,645.369 RLU
same,RLU,Time 94.796 s,658.13 RLU
same,RLU,Time 96.796 s,614.664 RLU
same,RLU,Time 98.796 s,601.791 RLU
same,RLU,Time 100.796 s,605.799 RLU
same,RLU,Time 102.796 s,574.755 RLU
same,RLU,Time 104.796 s,579.697 RLU
same,RLU,Time 106.796 s,554.874 RLU
same,RLU,Time 108.796 s,536.028 RLU
same,RLU,Time 110.796 s,503.66 RLU
same,RLU,Time 112.796 s,530.288 RLU
same,RLU,Time 114.796 s,510.693 RLU
same,RLU,Time 116.796 s,515.676 RLU
same,RLU,Time 118.796 s,477.82 RLU
same,RLU,Time 120.796 s,483.731 RLU
same,RLU,Time 122.796 s,479.051 RLU
same,RLU,Time 124.796 s,471.711 RLU
same,RLU,Time 126.796 s,440.735 RLU
same,RLU,Time 128.796 s,427.776 RLU
same,RLU,Time 130.796 s,428.214 RLU
same,RLU,Time 132.796 s,399.927 RLU
same,RLU,Time 134.796 s,369.335 RLU
same,RLU,Time 136.796 s,379.68 RLU
same,RLU,Time 137.562 s,368.206 RLU
same,RLU,Time 143.562 s,326.335 RLU
same,RLU,Time 149.562 s,297.638 RLU
same,RLU,Time 155.562 s,268.743 RLU
same,RLU,Time 161.562 s,228.213 RLU
same,RLU,Time 167.562 s,217.461 RLU
same,RLU,Time 173.562 s,182.798 RLU
same,RLU,Time 179.562 s,176.247 RLU
same,RLU,Time 185.562 s,110.643 RLU
same,RLU,Time 191.562 s,119.586 RLU
same,RLU,Time 197.562 s,108.976 RLU
same,RLU,Time 203.562 s,106.514 RLU
same,RLU,Time 209.562 s,78.0739 RLU
same,RLU,Time 215.562 s,68.108 RLU
same,RLU,Time 221.562 s,58.6538 RLU
same,RLU,Time 227.562 s,6.904 RLU
same,RLU,Time 233.562 s,-20.3665 RLU
same,RLU,Time 239.562 s,5.663 RLU
same,RLU,Time 245.562 s,6.786 RLU
same,RLU,Time 293.562 s,-10.9022 RLU
same,RLU,Time 299.562 s,-34.1549 RLU
same,RLU,"calcium trace, sheet TAS2R1, Time 305.562 s",-13.9937 RLU
same,RLU,"calcium trace, sheet TAS2R1, Time 311.562 s",-29.8879 RLU
same,RLU,"calcium trace, sheet TAS2R1, Time 317.562 s",-12.8001 RLU
same,RLU,"calcium trace, sheet TAS2R1, Time 323.562 s",-27.2317 RLU
same,RLU,"calcium trace, sheet TAS2R1, Time 329.562 s",-32.4678 RLU
same,RLU,"calcium trace, sheet TAS2R1, Time 335.562 s",-20.5128 RLU
same,RLU,"calcium trace, sheet TAS2R1, Time 341.562 s",-18.5874 RLU
same,RLU,"calcium trace, sheet TAS2R1, Time 347.562 s",-51.1709 RLU
same,RLU,"calcium trace, sheet TAS2R1, Time 353.562 s",-49.428 RLU
same,RLU,"calcium trace, sheet TAS2R1, Time 359.562 s",-15.7961 RLU
same,Activation threshold concentration TAS2R1,lowest concentration with significantly increased fluorescence vs empty vector (p < 0.01),100 µM and 100.00 µM
